# Structures can show the parent of a compound that is named as a salt.
# How the values were obtained:
# [1] = test system: MPTP-induced dopaminergic neuron-damaged PD mouse models; experiment: MPTP-induced dopaminergic neuron damage PD mouse model, dose response protection and safety; type: in vivo, mice; conditions: for lowest dosage for protective effect: dopamine neuron protection; for dosage where toxic effects began to appear: mouse, in vivo, ip
# Protocol: Using MSF and ESF to conduct therapeutic studies with widely accepted MPTP-induced dopaminergic neuron-damaged PD mouse models. […] For the experimental groups of MSF and ESF, 10 dose groups were used for each drug. 10 mice in each group. Both the experimental group and the control group used intraperitoneal administration. The control group was treated with DMF. Statistically significant protective effects of dopamine neurons were found, and the dose-effect relationship was observed.
# [2] = test system: Nrf2 knockout mice with MPTP-induced dopaminergic neuronal damage; experiment: MPTP experiments on transgenic mice with the Nrf2 gene knocked out; type: in vivo
# From the text: Inferring from the inclusion of salicyl in their molecule structure, this new target may be associated with anti-neuroinflammation.
# [3] = test system: glutathione (GSH); experiment: In vitro cell experiments, intracellular glutathione concentration; type: cell-based
# [4] = test system: MS patients; conditions: DEFINE; cited from earlier work
# [5] = test system: MS patients; conditions: CONFIRM; cited from earlier work
# [6] = test system: MPTP-induced mouse PD models; conditions: cited from earlier work
# [7] = test system: models of chronic MPTP-induced dopamine neuron damage in mice; experiment: Chronic MPTP-induced dopamine neuron damage in mice; type: in vivo; conditions: 200 mg/kg/d, chronic MPTP model
# [8] = HPLC level of MSF and ESF in peripheral blood, liver and brain tissue after intraperitoneal injection; type: in vivo; conditions: after intraperitoneal injection in mice
# From the text: Unlike the positive control drug DMF which worked differently.
# [9] = test system: glutathione; conditions: unlike DMF; cited from earlier work
# [10] = Preliminary experiments on pharmacological activities; conditions: compared with methyl and ethyl salicyl fumarate
# From the text: 7. The applicants used the same fore-mentioned synthesis routes to perform esterification of salicylic acid and fumarate esters. They obtained propyl salicyl fumarate (compound structural formula shown as C), isopropyl salicyl fumarate (compound structural formula shown as D), and butyl salicyl fumarate (compound structural formula shown as E) respectively.
# [11] = intraperitoneal administration, MPTP mice
smiles,measurement,setting,value
"COC(=O)/C=C/C(=O)OC [DMF, dimethyl fumarate, reference compound]",dosage where DMF showed toxic effect,[1]; [11],> 200 mg
same,lowest dosage for protective effect,[1]; [11],50 mg/kg/day
same,dopaminergic neuron protective effect,[2],lost the dopaminergic neuron protective effect
same,effect on glutathione concentration in the cell,[3],had the effect of depleting glutathione
same,reduction in occurrences of disability,[4],38%
same,reduction in occurrences of recurrence,[4],49%
same,reduction in recurrence,[5],34%
same,protective effects against the neural toxicity of MPTP,[6],exhibit protective effects against the neural toxicity of MPTP
"CCOC(=O)/C=C/C(=O)OCc1ccccc1O [ESF, ethyl salicyl fumarate]",protective effects of dopamine neurons compared to DMF,[1]; [11],more significant protective effects
same,lowest dosage for protective effect,[1]; [11],10 mg/kg/day
same,dosage where toxic effects began to appear,[1],> 500 mg/kg/day
same,dopamine neuron protection,[7],significant dopamine neuron protection
same,entry into the brain through the blood-brain barrier,[8],can enter the brain through the blood-brain barrier
same,molecular structure in the brain,[8],remains unchanged in the brain
same,dopaminergic neuron protective effect,[2],still show significant protective effects
same,effect on glutathione concentration in the cell,[3],no effect on the concentration of glutathione in the cell
"COC(=O)/C=C/C(=O)O [MMF, monomethyl fumarate]","glutathione consumption, inhibition of mitochondrial and glycolysis functions",[9],does not consume glutathione and inhibit mitochondrial and glycolysis functions
"COC(=O)/C=C/C(=O)OCc1ccccc1O [MSF, methyl salicyl fumarate]",protective effects of dopamine neurons compared to DMF,[1]; [11],more significant protective effects
same,lowest dosage for protective effect,[1]; [11],10 mg/kg/day
same,dosage where toxic effects began to appear,[1],> 500 mg/kg/day
same,dopamine neuron protection,[7],significant dopamine neuron protection
same,entry into the brain through the blood-brain barrier,[8],can enter the brain through the blood-brain barrier
same,molecular structure in the brain,[8],remains unchanged in the brain
same,dopaminergic neuron protective effect,[2],still show significant protective effects
same,effect on glutathione concentration in the cell,[3],no effect on the concentration of glutathione in the cell
CCCCOC(=O)/C=C/C(=O)Oc1ccccc1C(=O)O [butyl salicyl fumarate],pharmacological activities,[10],lower than those of methyl salicyl fumarate and ethyl salicyl fumarate
CC(C)OC(=O)/C=C/C(=O)Oc1ccccc1C(=O)O [isopropyl salicyl fumarate],pharmacological activities,[10],lower than those of methyl salicyl fumarate and ethyl salicyl fumarate
CCCOC(=O)/C=C/C(=O)Oc1ccccc1C(=O)O [propyl salicyl fumarate],pharmacological activities,[10],lower than those of methyl salicyl fumarate and ethyl salicyl fumarate
